In paper PMC5483439, “The Effect of Pungent and Tingling Compounds from Piper nigrum L. on Background K^+ Currents” (Frontiers in Pharmacology, 2017):

Test system: mouse trigeminal neurons
Experiment: Calcium imaging on primary cultured mouse trigeminal neurons
Type: cell-based
Method: Trigeminal ganglia neurons were isolated from Swiss CD-1 mice (Charles River Laboratories, Sulzfeld, Germany). All experiments involving animals were carried out in accordance with the European Union Community Council’s guidelines and approved by the competent state office of the Federal Land of Northrhine Westphalia (file number 87-51.04.2010.A180). At postnatal day 2–5, the mice were sacrificed by decapitation. The brain was removed, and both trigeminal ganglia were excised. The ganglia were washed in PBS+/+ (Invitrogen, Karlsruhe, Germany) and collected in Leibovitz Medium (L15, Invitrogen) on ice. The ganglia were transferred to Dulbecco’s modified essential medium (DMEM) containing 0.025% collagenase (type IA, Sigma–Aldrich). The minced ganglia were incubated for 45 min in a humidified atmosphere (37°C, 95% humidity, 6% CO2) before trituration. The cell suspension was centrifuged at 1000 rpm for 4 min at room temperature and the pellet was resuspended in F-12 medium (Invitrogen; 31331-D-MEM/F-12, GlutaMax^TM) supplemented with 10% fetal bovine serum (FBS^TM; Invitrogen), 200 U/mL penicillin and 200 U/mL streptomycin. The cell suspension (50 μL) was then plated on poly L-lysine (0.01%) coated glass coverslips (30 mm, Sarstedt, Nümbrecht, Germany), placed in cell culture dishes (35 mm) and kept in a humidified atmosphere (37°C, 95% humidity, 6% CO2) for 1 h. Subsequently, F-12 medium (2 mL) supplemented with FBS (10%), 200 U/mL penicillin and 200 U/mL streptomycin was added to each dish. The cells were kept in an incubator (37°C, 95% humidity, 6% CO2) until use. The trigeminal ganglion neurons were incubated with the Ca^2+-sensitive reporter dye Fura-2/AM (Invitrogen, final concentration: 3 μM) 30–45 min before starting the experiment. […] The emitted light (510 nm) was detected with a 12-bit 1376 × 1032-pixel charge-coupled device camera (F-View II, Olympus), and Cell® imaging software (Olympus). The changes in intracellular calcium levels were calculated as the intensity ratio of f340/f380 [(E(510) at 340 nm illumination)/(E(510) at 380 nm illumination)]. […]

O=C(/C=C/C=C/c1ccc2c(c1)OCO2)N1CCCCC1 [1a, piperine]
trigeminal neurons showing a calcium response (100 μM): 68 out of 619 | piperine-responsive neurons still responsive in the presence of TRP antagonists (100 μM piperine with capsazepine 5 μM and HC-030031 20 μM, 25 of 37 neurons): 68% | piperine-responsive neurons also capsaicin-responsive (100 μM piperine, 10 μM capsaicin, 35 of 68 neurons): 51%
